Molecular target: Large T antigen (Simian virus 40) (UniProt P03070)
Test: SV40 large T antigen inhibitors, biochemical (AID 1903)
Conditions: SV40 large T antigen ATPase/helicase inhibition assay

Large T antigen (Simian virus 40), sequence (P03070 whole entry, looked up): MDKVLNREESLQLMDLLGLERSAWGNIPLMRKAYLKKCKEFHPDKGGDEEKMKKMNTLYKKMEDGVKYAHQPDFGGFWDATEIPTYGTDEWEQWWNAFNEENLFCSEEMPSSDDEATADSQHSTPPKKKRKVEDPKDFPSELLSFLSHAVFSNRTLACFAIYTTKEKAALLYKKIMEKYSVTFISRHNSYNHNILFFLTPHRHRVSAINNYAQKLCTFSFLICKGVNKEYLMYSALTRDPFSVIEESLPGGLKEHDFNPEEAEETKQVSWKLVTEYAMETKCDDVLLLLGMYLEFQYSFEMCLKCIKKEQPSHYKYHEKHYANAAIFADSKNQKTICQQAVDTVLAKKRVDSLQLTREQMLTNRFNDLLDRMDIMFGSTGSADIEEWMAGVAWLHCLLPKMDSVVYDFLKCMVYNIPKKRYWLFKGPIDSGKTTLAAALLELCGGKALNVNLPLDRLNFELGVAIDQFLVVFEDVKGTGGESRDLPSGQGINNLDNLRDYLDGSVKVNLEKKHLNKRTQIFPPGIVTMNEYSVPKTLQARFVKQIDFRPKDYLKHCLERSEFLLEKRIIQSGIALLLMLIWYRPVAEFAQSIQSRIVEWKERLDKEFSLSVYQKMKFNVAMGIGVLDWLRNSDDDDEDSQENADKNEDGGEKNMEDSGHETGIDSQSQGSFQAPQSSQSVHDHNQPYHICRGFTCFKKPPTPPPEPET

Structure (SMILES) | IC50 [µM]
C#CCOCCOCCOCCNc1nc(N2CCN(C(=O)CCCCCCCCCCNC(=O)[C@H]([C@@H](C)CC)n3cc(CCCCN=C(N)N)nn3)CC2)nc(N2CCN(C(=O)CCCCCCCCCCNC(=O)[C@H](CCCCN)n3cc(C[C@@H](C)CC)nn3)CC2)n1 | 13.1
C#CCOCCOCCOCCNc1nc(N2CCN(C(=O)CCCCCCCCCCNC(=O)[C@H](CCCN=C(N)N)n3cc(C[C@@H](C)CC)nn3)CC2)nc(N2CCN(C(=O)CCCCCCCCCCNC(=O)[C@@H]([C@H](C)CC)n3cc(CCCCCN)nn3)CC2)n1 | 18.6
O=C(O)c1cc[c]([Hg][Cl])cc1 | 1.27
CCCCC1(C)OC(=O)C(=Cc2ccc(-c3ccc(Cl)c(C(=O)O)c3)o2)C(=O)O1 (centres undefined) | 17.2
C[c-]1[c-](C)[c-](C)[c-](C)[c-]1C.[Fe].c1cc2nccc(N3CCCC3)[c-]2c1 (centres undefined) | 17.6
C#CCOCCOCCOCCNc1nc(N2CCN(C(=O)CCCCCCCCCCNC(=O)[C@H]([C@@H](C)CC)n3cc(CCCCN=C(N)N)nn3)CC2)nc(N2CCN(C(=O)CCCCCCCCCCNC(=O)[C@H](CCCN=C(N)N)n3cc(C[C@@H](C)CC)nn3)CC2)n1 | 10.3
O=C(O)CCC1c2cc3c4cc2OC2Oc5cc6c(cc51)C(CCC(=O)O)c1cc5c7cc1OC(O6)c1cc6cc(c1)Oc1cc(cc(C(=O)O)c1)Oc1cc8cc(c1)C(Oc1cc(c(cc1C5CCC(=O)O)C3CCC(=O)O)OC(O4)c1cc(cc(c1)Oc1cc(cc(C(=O)O)c1)O8)Oc1cc(cc(C(=O)O)c1)Oc1cc(cc2c1)Oc1cc(cc(C(=O)O)c1)O6)O7 (centres undefined) | < 0.39
C#CCOCCOCCOCCNc1nc(N2CCN(C(=O)CCCCCCCCCCNC(=O)[C@H]([C@@H](C)CC)n3cc(CCCCN=C(N)N)nn3)CC2)nc(N2CCN(C(=O)CCCCCCCCCCNC(=O)[C@H]([C@@H](C)CC)n3cc(CCCCN=C(N)N)nn3)CC2)n1 | 5.17
C[CH2][Hg][S]c1ccccc1C(=O)O | 32.7

Reference: PubChem BioAssay AID1903 (Southern Research Specialized Biocontainment Screening …, 2009)
